Key:
Format in all cases: physicochemical
[1] = Stress stability of tablets of Example 6, HPLC degradation products
Protocol: (§1) For the comparative tests, samples of perindopril erbumine with different particle size were mixed with some common pharmaceutically acceptable excipients in binary or ternary mixtures. Pharmaceutical compositions, particularly tablets, with perindopril erbumine having different particle size were prepared as well. Binary and ternary mixtures and tablets were exposed to the stress condition, e.g. 60° C. for 14 days or 40° C./75% relative humidity for 1 month.
Samples of perindopril erbumine having large or small particles were mixed with selected pharmaceutical excipients in stated ratio:
Mixture was homogenized and pressed into the tablets. The amount of the perindopril erbumine in the tablets was defined by the mass of the tablet. Tablet could contain 2, 4 or 8 mg of perindopril erbumine.
Tablets were exposed to the stress condition of 60° C. for 14 days and 40° C./75% relative humidity for 1 month.

[2] = Stress stability of binary mixture perindopril erbumine:anhydrous lactose 1:2, HPLC degradation products; settings: binary mixture with anhydrous lactose 1:2
Protocol: as §1, with “month. Degradation products of perindopril were determined using HPLC method as described in European Pharmacopea 5.0 (January 2005, monograph for Perindopril tert-butylamine—pages 2210-2212).” for “month.”
(§2) Samples of perindopril erbumine having large or small particles were mixed with anhydrous lactose into the binary mixtures having a ratio perindopril erbumine:anhydrous lactose=1:2. Binary mixtures were closed into vials and exposed to the stress condition of 60° C. for 14 days. Degradation products (impurities B and F) of perindopril were determined using HPLC method as described in European Pharmacopea 5.0 (p. 2210-2212).

[3] = Stress stability of ternary mixture perindopril erbumine:Avicel:Syloid 2:10:1, HPLC degradation products; settings: ternary mixture with Avicel and Syloid 2:10:1
Protocol: as §1
(§3) Samples of perindopril erbumine having large or small particles were mixed with microcrystalline cellulose (Avicel) and micronized silicon dioxide (Syloid) into the ternary mixtures having ratio perindopril erbumine:Avicel:Syloid=2:10:1. Ternary mixtures were exposed to the stress condition of 40° C./75% relative humidity for 1 month.

[4] = Stress stability of binary mixture perindopril erbumine:Avicel 1:2, HPLC degradation products; settings: binary mixture with Avicel 1:2
Protocol: as §1, with “month. Degradation products of perindopril were determined using HPLC method as described in European Pharmacopea 5.0 (January 2005, monograph for Perindopril tert-butylamine—pages 2210-2212).” for “month.”
as §2, with “microcrystalline cellulose (Avicel)” for “anhydrous lactose”, “erbumine:Avicel=1:2.” for “erbumine:anhydrous lactose=1:2.”

[5] = Stress stability of ternary mixture perindopril erbumine:anhydrous lactose:Syloid 2:10:1, HPLC degradation products; settings: ternary mixture with anhydrous lactose and Syloid 2:10:1
Protocol: as §1
as §3, with “anhydrous lactose” for “microcrystalline cellulose (Avicel)”, “erbumine:anhydrous lactose:Syloid=2:10:1.” for “erbumine:Avicel:Syloid=2:10:1.”

[6] = Stress stability of binary mixture perindopril erbumine:Aerosil 15:1, HPLC degradation products; settings: binary mixture with Aerosil 15:1
Protocol: as §1
Samples of perindopril erbumine having large or small particles were mixed with colloidal anhydrous silicon dioxide (Aerosil) into the binary mixtures having a ratio perindopril erbumine:Aerosil=15:1. Binary mixtures were closed into vials and exposed to the stress condition of 60° C. for 14 days.

[7] = Comparative stress tests of perindopril erbumine of different particle size with excipients; settings: in comparison to perindopril erbumine having small particles; regardless of excipients or testing conditions
Protocol: During the development of the stable pharmaceutical composition of perindopril erbumine comparative tests were performed to investigate effects of various pharmaceutically acceptable excipients e.g. fillers, disintegrants and glidants, and different particle size of perindopril erbumine on the stability of perindopril erbumine.
as §1

impurity B ([1]; 40° C./75% RH, 1 month)	impurity F ([1]; 40° C./75% RH, 1 month)	sum of impurities ([1]; 40° C./75% RH, 1 month)	impurity B ([1]; 60° C., 14 days)	impurity F ([1]; 60° C., 14 days)	sum of impurities ([1]; 60° C., 14 days)	impurity B ([1]; beginning)	impurity F ([1]; beginning)	sum of impurities ([1]; beginning)	impurity B ([2]; 60° C., 14 days)	impurity F ([2]; 60° C., 14 days)	sum of impurities ([2]; 60° C., 14 days)	impurity B ([2]; beginning)	impurity F ([2]; beginning)	sum of impurities ([2]; beginning)	impurity B ([3]; 40° C./75% RH, 1 month)	impurity F ([3]; 40° C./75% RH, 1 month)	sum of impurities ([3]; 40° C./75% RH, 1 month)	impurity B ([3]; beginning)	impurity F ([3]; beginning)	Structure (SMILES)	other results
0.09%	0.51%	0.65%	0.27%	0.96%	1.79%	<0.05%	<0.05%	0.05%	<0.05%	0.77%	0.88%	<0.05%	<0.05%	<0.05%	0.14%	0.17%	0.36%	<0.05%	<0.05%	CCC[C@H](N[C@@H](C)C(=O)N1[C@H](C(=O)O)C[C@@H]2CCCC[C@@H]21)C(=O)OCC [perindopril erbumine - small particles, perindopril erbumine]	sum of impurities ([3]; beginning): 0.11%; impurity B ([4]; 60° C., 14 days): <0.05%; impurity F ([4]; 60° C., 14 days): 0.74%; sum of impurities ([4]; 60° C., 14 days): 0.81%; impurity B ([4]; beginning): <0.05%; impurity F ([4]; beginning): <0.05%; sum of impurities ([4]; beginning): <0.05%; impurity B ([5]; 40° C./75% RH, 1 month): 1.24%; impurity F ([5]; 40° C./75% RH, 1 month): 1.35%; sum of impurities ([5]; 40° C./75% RH, 1 month): 2.75%; impurity B ([5]; beginning): <0.05%; impurity F ([5]; beginning): <0.05%; sum of impurities ([5]; beginning): 0.10%; impurity B ([6]; 60° C., 14 days): <0.05%; impurity F ([6]; 60° C., 14 days): 0.80%; sum of impurities ([6]; 60° C., 14 days): 0.80%; impurity B ([6]; beginning): <0.05%; impurity F ([6]; beginning): <0.05%; sum of impurities ([6]; beginning): <0.05%
0.13%	0.28%	0.41%	0.56%	0.63%	1.40%	<0.05%	0.07%	0.07%	<0.05%	0.13%	0.13%	<0.05%	<0.05%	<0.05%	0.05%	0.18%	0.29%	<0.05%	<0.05%	CCC[C@H](N[C@@H](C)C(=O)N1[C@H](C(=O)O)C[C@@H]2CCCC[C@@H]21)C(=O)OCC [perindopril erbumine - large particles, perindopril erbumine]	degradation of perindopril erbumine [7]: smaller; sum of impurities ([3]; beginning): 0.11%; impurity B ([4]; 60° C., 14 days): <0.05%; impurity F ([4]; 60° C., 14 days): 0.07%; sum of impurities ([4]; 60° C., 14 days): 0.07%; impurity B ([4]; beginning): <0.05%; impurity F ([4]; beginning): <0.05%; sum of impurities ([4]; beginning): <0.05%; impurity B ([5]; 40° C./75% RH, 1 month): 1.09%; impurity F ([5]; 40° C./75% RH, 1 month): 0.70%; sum of impurities ([5]; 40° C./75% RH, 1 month): 1.92%; impurity B ([5]; beginning): <0.05%; impurity F ([5]; beginning): <0.05%; sum of impurities ([5]; beginning): 0.10%; impurity B ([6]; 60° C., 14 days): <0.05%; impurity F ([6]; 60° C., 14 days): 0.08%; sum of impurities ([6]; 60° C., 14 days): 0.08%; impurity B ([6]; beginning): <0.05%; impurity F ([6]; beginning): <0.05%; sum of impurities ([6]; beginning): <0.05%
